According to paper PMC3371634 (Biochemical pharmacology, 2007):

Molecular target: ABCB1 (P-glycoprotein) (Homo sapiens, UniProt P08183)
Assay: ABCB1 ATPase stimulation in plasma membrane vesicles
Assay type: biochemical

ABCB1 (P-glycoprotein), sequence (P08183 whole entry): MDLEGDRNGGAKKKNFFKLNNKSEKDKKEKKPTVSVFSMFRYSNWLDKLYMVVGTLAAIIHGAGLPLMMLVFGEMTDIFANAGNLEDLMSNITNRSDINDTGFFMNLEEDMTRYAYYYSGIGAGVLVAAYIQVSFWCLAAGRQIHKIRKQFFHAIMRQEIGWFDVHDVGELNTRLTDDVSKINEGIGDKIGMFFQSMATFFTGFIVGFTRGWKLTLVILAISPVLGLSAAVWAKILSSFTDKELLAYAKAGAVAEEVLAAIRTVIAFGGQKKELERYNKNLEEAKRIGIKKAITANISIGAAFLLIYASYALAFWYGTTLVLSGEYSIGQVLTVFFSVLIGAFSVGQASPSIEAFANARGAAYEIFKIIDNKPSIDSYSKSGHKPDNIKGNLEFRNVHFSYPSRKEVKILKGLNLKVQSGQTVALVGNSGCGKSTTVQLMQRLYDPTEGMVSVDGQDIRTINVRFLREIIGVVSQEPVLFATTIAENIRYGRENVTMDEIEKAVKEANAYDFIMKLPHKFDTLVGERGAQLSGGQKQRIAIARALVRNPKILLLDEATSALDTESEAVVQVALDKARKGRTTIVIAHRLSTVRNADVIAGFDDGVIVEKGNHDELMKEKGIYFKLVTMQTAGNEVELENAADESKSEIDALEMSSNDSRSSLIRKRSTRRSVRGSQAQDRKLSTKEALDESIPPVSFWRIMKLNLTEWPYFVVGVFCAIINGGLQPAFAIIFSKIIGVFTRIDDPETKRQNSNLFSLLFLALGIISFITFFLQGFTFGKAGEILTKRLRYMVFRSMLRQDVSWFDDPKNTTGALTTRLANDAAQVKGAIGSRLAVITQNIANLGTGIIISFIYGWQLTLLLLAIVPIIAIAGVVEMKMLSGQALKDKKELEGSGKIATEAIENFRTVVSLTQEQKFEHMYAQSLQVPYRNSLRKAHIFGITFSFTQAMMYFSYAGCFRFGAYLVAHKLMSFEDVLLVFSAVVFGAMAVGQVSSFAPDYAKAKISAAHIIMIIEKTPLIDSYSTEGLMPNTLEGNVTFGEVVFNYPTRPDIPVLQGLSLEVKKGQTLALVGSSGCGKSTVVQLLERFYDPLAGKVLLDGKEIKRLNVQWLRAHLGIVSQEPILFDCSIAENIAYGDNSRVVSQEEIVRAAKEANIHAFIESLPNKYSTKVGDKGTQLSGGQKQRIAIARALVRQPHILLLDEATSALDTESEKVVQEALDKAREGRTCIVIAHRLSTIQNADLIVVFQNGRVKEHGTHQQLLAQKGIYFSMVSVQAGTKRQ

- EC50: > 100 µM
SMILES: [La+3].c1cnc2c(c1)ccc1cccnc12.c1cnc2c(c1)ccc1cccnc12.c1cnc2c(c1)ccc1cccnc12 [KP772, [tris(1,10-phenanthroline)lanthanum(III)] trithiocyanate]
